Experimental data taken from patent US20240252677A1, “ONE-COMPONENT DELIVERY SYSTEM FOR NUCLEIC ACIDS” (The Trustees of the University of Pennsylvania, priority 2021, published 2024).

Columns and labels:
[1] = Dimensions (size, PDI) of DNPs co-assembled from IAJDs and Luc-mRNA by DLS; format: physicochemical
In short: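 IAJDs (80 mg/mL ethanol stock) rapidly injected into Luc-mRNA (4.0 mg/mL stock) diluted in 10 mM acetate buffer pH 4.0, then vortexed 5 s. Size and polydispersity of resulting DNPs measured by DLS (633 nm laser, 175° detection) at 23 °C.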

[2] = tested on: liver; assay: In vivo mRNA delivery, IVIS imaging of organs: liver; set-up: species or system mice; key to Organs with luminescence: liver: strong: Strong meant the luminescence intensity in that organ was relatively high, compared to other organs; weak: Weak meant the luminescence intensity in that organ was relatively low, compared to other organs; conditions: Table 17; mice, IVIS, 4-6 h after injection; intensity relative to other organs
[3] = pKa measurements of individual IAJD molecules by titration; format: physicochemical; conditions: ethanol saturated with NaCl, titrated with 0.1 M aqueous HCl; individual IAJD molecules, titration
In short: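 Compound dissolved at 1.5 mg/mL in NaCl-saturated ethanol and titrated with 0.1 M HCl in 7.5 μL steps, pH read by electrode after each addition. pKa taken from the half-equivalence point.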

[4] = Stability of DNPs by DLS after storage at 5° C.; format: physicochemical; set-up: key to Original size distribution type (DLS curve) / Size distribution type (DLS curve): U: DLS curve showed unimodal size distribution; B: DLS curve showed bimodal size distribution; M: DLS curve showed multimodal size distribution; conditions: for pH Sample: DNPs: IAJD 4.0 mg/mL + Luc-mRNA 0.1 mg/mL, injection in acetate buffer pH 4.00; for PDI / Size (d, nm) / Original size distribution type (DLS curve): IAJD 4.0 mg/mL + Luc-mRNA 0.1 mg/mL; for PDI / Size (d, nm): acetate buffer; for Original size distribution type (DLS curve): before storage, acetate buffer pH 4.00
In short: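 DNPs in acetate buffer sized by DLS after storage at 5 °C. Stability ranked Excellent, Good or Not stable according to retention, shrinkage or growth of original size and narrowing or broadening of size distribution.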

[5] = tested on: spleen; assay: In vivo mRNA delivery, IVIS imaging of organs: spleen; set-up: species or system mice; key to Organs with luminescence: spleen: strong: Strong meant the luminescence intensity in that organ was relatively high, compared to other organs; weak: Weak meant the luminescence intensity in that organ was relatively low, compared to other organs; conditions: Table 17; mice, IVIS, 4-6 h after injection; intensity relative to other organs
[6] = Table 16, DNPs from IAJD 4 mg/mL and Luc-mRNA 0.10 mg/mL by injection in acetate buffer (10 mM, pH 4.0)
[7] = Table 17, DNPs used in vivo, IAJD 4 mg/mL, Luc-mRNA 0.10 mg/mL, acetate pH 4.0

| SMILES | PDI [1, 6] | Size (d, nm) [1, 6] [nm] | PDI [1, 7] | Size (d, nm) [1, 7] [nm] | Organs with luminescence: liver [2] | pKa [3] | pH Sample [4] | Original size distribution type (DLS curve) [4] | Organs with luminescence: spleen [5] | Size distribution type (DLS curve) ([4]; after 35 days at 5° C.) | PDI ([4]; after 35 days at 5° C.) | Size (d, nm) ([4]; after 35 days at 5° C.) [nm] | Size distribution type (DLS curve) ([4]; after 21 days at 5° C.) | PDI ([4]; after 21 days at 5° C.) | Size (d, nm) ([4]; after 21 days at 5° C.) [nm] | other results |
| --- | --- | --- | --- | --- | --- | --- | --- | --- | --- | --- | --- | --- | --- | --- | --- | --- |
| CCCCCCCCCCCCCCCCOc1cc(COC(=O)CCCN2CCN(CCO)CC2)cc(OCCCCCCCCCCCCCCC)c1 [IAJD 150, 3-(Hexadecyloxy)-5-(pentadecyloxy)benzyl 4-(4-(2-hydroxyethyl)piperazin-1-yl)butanoate] | 0.454 | 285 | 0.454 | 285 | liver (weak), | 6.65 | 4.51 | (B) | spleen (strong) |  |  |  |  |  |  | Size distribution type (DLS curve) ([4]; after 19 days at 5° C.): (U); PDI ([4]; after 19 days at 5° C.): 0.314; Size (d, nm) ([4]; after 19 days at 5° C.): 308 nm |
| CCCCCCCCCCCCCCCCCOc1cc(COC(=O)CCCN2CCN(C)CC2)cc(OCCCCCCCCCCCCCCC)c1 [IAJD 151, 3-(Heptadecyloxy)-5-(pentadecyloxy)benzyl 4-(4-methylpiperazin-1-yl)butanoate] | 0.216 | 287 | 0.216 | 287 | liver (weak), | 6.39 | 4.57 | (U) | spleen (strong) | (U) | 0.240 | 271 |  |  |  |  |
| CCCCCCCCCCCCCCCCCOc1cc(COC(=O)CCCN2CCN(CCO)CC2)cc(OCCCCCCCCCCCCCCC)c1 [IAJD 152, 3-(Heptadecyloxy)-5-(pentadecyloxy)benzyl 4-(4-(2-hydroxyethyl)piperazin-1-yl)butanoate] | 0.370 | 281 | 0.370 | 281 | Liver (weak), | 6.65 | 4.45 | (B) | spleen (strong) | (U) | 0.286 | 253 |  |  |  |  |
| CCCCCCCCCCCCCCCCCCOc1cc(COC(=O)CCCN2CCN(C)CC2)cc(OCCCCCCCCCCCCCCC)c1 [IAJD 153, 3-(Octadecyloxy)-5-(pentadecyloxy)benzyl 4-(4-methylpiperazin-1-yl)butanoate] | 0.238 | 232 | 0.238 | 232 | liver (strong), | 6.42 | 4.52 | (U) | spleen (strong) | (U) | 0.232 | 222 |  |  |  |  |
| CCCCCCCCCCCCCCCCCCOc1cc(COC(=O)CCCN2CCN(CCO)CC2)cc(OCCCCCCCCCCCCCCC)c1 [IAJD 154, 3-(Octadecyloxy)-5-(pentadecyloxy)benzyl 4-(4-(2-hydroxyethyl)piperazin-1-yl)butanoate] | 0.407 | 429 | 0.407 | 429 | liver (weak), | 6.48 | 4.47 | (B) | spleen (strong) | (B) | 0.471 | 372 |  |  |  |  |
| CCCCCCCCCCCCCOc1cc(COC(=O)CCCN2CCN(C)CC2)cc(OCC(CC)CCCC)c1 (stereo not drawn) [IAJD 161, 3-((2-Ethylhexyl)oxy)-5-(tridecyloxy)benzyl 4-(4-methylpiperazin-1-yl)butanoate] | 0.235 | 129 | 0.235 | 129 | liver (strong), | 6.38 | 4.97 | (U) | spleen (strong) |  |  |  | (U) | 0.226 | 125 |  |
| CCCCCCCCCCCCCOc1cc(COC(=O)CCCN2CCN(CCO)CC2)cc(OCC(CC)CCCC)c1 (stereo not drawn) [IAJD 162, 3-((2-Ethylhexyl)oxy)-5-(tridecyloxy)benzyl 4-(4-(2-hydroxyethyl)piperazin-1-yl)butanoate] | 0.301 | 191 | 0.301 | 191 | liver (weak), | 6.33 | 4.66 | (B) | spleen (strong) |  |  |  | (B) | 0.291 | 182 |  |
| CCCCCCCCCCCCCCOc1cc(COC(=O)CCCN2CCN(C)CC2)cc(OCCCCCCCCCCCCC)c1 [IAJD 171, 3-(Tetradecyloxy)-5-(tridecyloxy)benzyl 4-(4-methylpiperazin-1-yl)butanoate] | 0.268 | 174 | 0.268 | 174 | liver (strong), | 6.16 | 4.88 | (U) | spleen (strong) |  |  |  | (U) | 0.277 | 175 |  |
| CCCCCCCCCCCCCCOc1cc(COC(=O)CCCN2CCN(CCO)CC2)cc(OCCCCCCCCCCCCC)c1 [IAJD 172, 3-(Tetradecyloxy)-5-(tridecyloxy)benzyl 4-(4-(2-hydroxyethyl)piperazin-1-yl)butanoate] | 0.203 | 235 | 0.203 | 235 | liver (weak), | 6.03 | 4.84 | (U) | spleen (strong) |  |  |  |  |  |  | Size distribution type (DLS curve) ([4]; after 14 days at 5° C.): (U); PDI ([4]; after 14 days at 5° C.): 0.219; Size (d, nm) ([4]; after 14 days at 5° C.): 225 nm |
| CCCCCCCCCCCCCCCCOc1cc(COC(=O)CCCN2CCN(C)CC2)cc(OCCCCCCCCCCCCC)c1 [IAJD 173, 3-(Hexadecyloxy)-5-(tridecyloxy)benzyl 4-(4-methylpiperazin-1-yl)butanoate] | 0.301 | 139 | 0.301 | 139 | liver (strong), | 5.91 | 4.79 | (U) | spleen (weak) |  |  |  | (B) | 0.376 | 132 |  |
| CCCCCCCCCCCCCCCCCCOc1cc(COC(=O)CCCN2CCN(C)CC2)cc(OCCCCCCCCCCCCC)c1 [IAJD 177, 3-(Octadecyloxy)-5-(tridecyloxy)benzyl 4-(4-methylpiperazin-1-yl)butanoate] | 0.275 | 159 | 0.275 | 159 | liver (strong), | 5.9 | 4.76 | (B) | spleen (strong) |  |  |  | (B) | 0.218 | 153 |  |
| CCCCCCCCCCCCCCCCCCOc1cc(COC(=O)CCCN2CCN(CCO)CC2)cc(OCCCCCCCCCCCCC)c1 [IAJD 178, 3-(Octadecyloxy)-5-(tridecyloxy)benzyl 4-(4-(2-hydroxyethyl)piperazin-1-yl)butanoate] | 0.223 | 344 | 0.223 | 344 | liver (weak), | 5.97 | 4.58 | (U) | spleen (strong) |  |  |  | (U) | 0.261 | 261 |  |
